*1 amine or outer side, *2 acyl side, *3 side chain or, on linkers, in order; H or OH if unused. Where a SMILES comes first, the peptide text is derived from it. Bridges are numbered along the chain shown (N, C = ends). Side-chain parts run from the residue outwards. [ ]: non-standard residue; d: D form. The star is where a group is joined. ξ: configuration not given here. pTerphenylCO(4''-OnC5H11) = CCCCCOc1ccc(-c2ccc(-c3ccc(C(=O)*)cc3)cc2)cc1; Orn(4R-OH,5R-OH) = O=C([C@H](C[C@@H](O)[C@@H](O)N[*:3])N[*:1])[*:2]; hTyr(3S-OH,4S-OH) = N[C@H](C(=O)O)[C@H](O)[C@@H](O)c1ccc(O)cc1; Orn(Nα,Nα-(2-aminoethyl)2) = NCCC[C@@H](C(=O)*)N(CCN)CCN; X2 = NCCC[C@H](N)C(=O)N(CCCN)CCC[C@H](N[*:1])C(=O)[*:2]; NαBis(2-aminoethyl)dOrn = NCCC[C@H](C(=O)*)N(CCN)CCN; Pro(3S-OH,4S-Me) = C[C@H]1CN[C@H](C(=O)O)[C@H]1O; X7 = CCCCCCCCCCCCC(C)[C@H](CC(=O)[*:1])O[*:2]; X4 = NCCCN(CCC[C@H](N[*:1])C(=O)[*:2])[*:3]; X3 = CCCCCCCCCCCCC[C@H](CC(=O)[*:1])O[*:2]; X6 = NCCN(CCC[C@H](N[*:1])C(=O)[*:2])[*:3]; ξGln(3R-OH) = NC(=O)C[C@@H](O)C(N)C(=O)O; Dopa = N[C@@H](Cc1ccc(O)c(O)c1)C(=O)O; Pro(3S-OH) = O=C(O)[C@H]1NCC[C@@H]1O; X1 = NC(=O)CC(O)C(N[*:1])C(=O)[*:2]; d(aThr) = C[C@@H](O)[C@@H](N)C(=O)O; Hyp = O=C(O)[C@@H]1C[C@@H](O)CN1; X5 = NCCCN[C@@H](CCCN)C(=O)*; dOrn = NCCC[C@@H](N)C(=O)O; Orn = NCCC[C@H](N)C(=O)O
Tests used:
Candida albicans = assay: Murine systemic candidiasis, survival; format: in vivo, mouse; details: Crj: CD-1 (ICR) mice; i.v. once just after infection; survival on day 7
Description: Mice of a conventional immunocompetent mouse strain, Crj: CD- 1 (ICR) were used for experimental infection models of systemic candidiasis. 4 weeks old Crj: CD-1 (ICR) mice were used for systemic candidiasis by injecting Candida albicans 5×10^6 conidia/mouse via the tail vein. Test compounds were intravenously (i.v.) given once just after infection for systemic candidiasis. 50% of effective dose (ED50) values were calculated from the survival number at each dose on day 7.

A. fumigatus = assay: Murine pulmonary aspergillosis, survival; format: in vivo, mouse; details: cortisone-treated ICR male mice; once daily for 4 days; survival on day 14
Description: Murine pulmonary aspergillosis was created in cortisone-treated (250 mg/kg, twice sub-cutaneous treatments on 3 days before and on the infection day) ICR male mouse. Conidia of A. fumigatus (2.5×10^5 conidia/mouse) were infected intratracheally to these mice, and treatments were carried out once daily for 4 days. The efficacy of each drug was determined from the survival number, and 50% of effective dose (ED50) was calculated from the survival number at each dose on the 14 days.

Candida albicans CY1002 = assay: In vitro antifungal activity, broth micro-dilution IC80; format: cell-based; details: YNB medium, 1-2 days at 35° C.
Description: (§1) The in vitro antifungal activities of the representative Aerothricins of the present study were evaluated by determining the 80% inhibitory concentration (IC80), which was calculated as the lowest concentration of an antifungal to inhibit the growth of fungus to 20% turbidity compared with the drug-free control growth spectrophotometrically.
(§2) The IC80 values were determined by the broth micro-dilution procedure based on NCCLS Approved Standard with the following minor modifications (National Committee for Clinical Laboratory Standards. (1997) Reference method for broth dilution antifungal susceptibility testing for yeasts. Approved standard. Document M27-A). Yeast Nitrogen Base (YNB; Difco Lab.) supplemented with 1% glucose and 0.25% K2HPO4 was used as testing medium for yeasts, the same medium solidified with 0.2% low melting point agarose (BRL) was used for filamentous fungi. Inoculum size was 1-3×10^3 cells/ml, and incubation was performed for 1-2 days at 35° C.

[1] = tested on: Scedosporium apiospermum CF1077; assay: as above; format: cell-based; details: YNB medium with 0.2% agarose, 1-2 days at 35° C.
Description: as §1, §2

[2] = tested on: Aspegillus fumigatus CF1003; assay: as above; format: cell-based, Aspergillus fumigatus; details: YNB medium with 0.2% agarose, 1-2 days at 35° C.
Description: as §1, §2

mouse hepatocytes = assay: In vitro hepatotoxicity test; format: cell-based; details: mouse hepatocyte monolayers, exposed 1 day, morphological evaluation
Text: The mouse hepatocytes were isolated by a collagenase digestion and cultured in microtest plates. The hepatocyte monolayers were exposed to the test Aerothricins in the culture system for 1 day. After the culture period, the hepatocytes were observed under a microscope and evaluated morphologically. The degree of the morphological alteration (degeneration) of the hepatocytes by the test Aerothricins were compared with WF11243 and LY303366.

[3] = Toxicity on repeated i.v. administration to mice; format: in vivo; details: 5 mg/kg and 30 mg/kg once daily i.v. for 2 weeks
Solubility = details: solvents in which soluble

SMILES | In vivo antifungal activity against systemic candidiasis in mice, ED50 on day 7 (Candida albicans) | In vivo antifungal activity against pulmonary aspergillosis in mice, ED50 on day 14 (A. fumigatus) | In vitro Antifungal activity, IC80 (Candida albicans CY1002) | In vitro Antifungal activity, IC80 [1] | In vitro Antifungal activity, IC80 [2] | Cytotoxicity to hepatocyte (mouse hepatocytes) | also measured
CCCCCCCCCCCCC[C@@H]1CC(=O)N[C@H]([C@@H](C)O)C(=O)N[C@H](C)C(=O)N[C@@H](Cc2ccc(O)cc2)C(=O)N[C@@H](C(C)C)C(=O)N2C[C@H](O)C[C@H]2C(=O)N[C@H]([C@@H](C)O)C(=O)N[C@@H]([C@@H](C)O)C(=O)N2CC[C@H](O)[C@H]2C(=O)NC([C@H](O)CC(N)=O)C(=O)NCC(=O)N[C@H]([C@@H](C)O)C(=O)N[C@@H](CCCNC(=O)[C@@H](CCCN)NC(=O)[C@@H](N)CCCN)C(=O)O1 (stereo partly drawn) [Aerothricin 133] ([d(aThr)][dA]YV[Hyp][d(aThr)]T[Pro(3S-OH)][ξGln(3R-OH)]G[d(aThr)][Orn]([dOrn-Orn]); linker N-C via X3) | 0.35 mg/kg |  |  |  |  |  | 
CCCCCCCCCCCCC[C@@H]1CC(=O)N[C@H]([C@@H](C)O)C(=O)N[C@H](C)C(=O)N[C@@H](Cc2ccc(O)cc2)C(=O)N[C@@H](C(C)C)C(=O)N2C[C@H](O)C[C@H]2C(=O)N[C@H]([C@@H](C)O)C(=O)N[C@@H]([C@@H](C)O)C(=O)N2CC[C@H](O)[C@H]2C(=O)NC(C(O)CC(N)=O)C(=O)NCC(=O)N[C@H]([C@@H](C)O)C(=O)N[C@@H](CCCN(CCN)C(=O)[C@H](CCCN)N(CCN)CCN)C(=O)O1 (stereo partly drawn) [Aerothricin 137] ([d(aThr)][dA]YV[Hyp][d(aThr)]T[Pro(3S-OH)][X1]G[d(aThr)][X6](Orn(Nα,Nα-(2-aminoethyl)2)); linker N-C via X3) |  | 5.2 mg/kg |  |  |  |  | 
CCCCCCCCCCCCC[C@@H]1CC(=O)N[C@H]([C@@H](C)O)C(=O)N[C@H](C)C(=O)N[C@@H](Cc2ccc(O)cc2)C(=O)N[C@@H](C(C)C)C(=O)N2C[C@H](O)C[C@H]2C(=O)N[C@H]([C@@H](C)O)C(=O)N[C@@H]([C@@H](C)O)C(=O)N2CC[C@H](O)[C@H]2C(=O)NC(C(O)CC(N)=O)C(=O)NCC(=O)N[C@H]([C@@H](C)O)C(=O)N[C@@H](CCCN(CCCN)C(=O)[C@H](CCCN)NCCCN)C(=O)O1 (stereo partly drawn) [Aerothricin 136] ([d(aThr)][dA]YV[Hyp][d(aThr)]T[Pro(3S-OH)][X1]G[d(aThr)][X4](X5); linker N-C via X3) |  |  | 0.33 µg/mL | 0.34 µg/mL | 0.38 µg/mL |  | 
CCCCCOc1ccc(-c2ccc(-c3ccc(C(=O)N[C@H]4C[C@@H](O)[C@@H](O)NC(=O)[C@@H]5[C@@H](O)[C@@H](C)CN5C(=O)[C@H]([C@@H](C)O)NC(=O)[C@H]([C@H](O)[C@@H](O)c5ccc(O)cc5)NC(=O)[C@@H]5C[C@@H](O)CN5C(=O)[C@H]([C@@H](C)O)NC4=O)cc3)cc2)cc1 [LY303366, reference compound] ({pTerphenylCO(4''-OnC5H11)}-[Orn(4R-OH,5R-OH)]T[Hyp][hTyr(3S-OH,4S-OH)]T[Pro(3S-OH,4S-Me)]; lactam 1-C) |  |  |  |  |  | 10 µg/mL | 
CCCCCCCCCCCCC[C@@H]1CC(=O)N[C@H]([C@@H](C)O)C(=O)N[C@H](C)C(=O)N[C@@H](Cc2ccc(O)cc2)C(=O)N[C@@H](C(C)C)C(=O)N2C[C@H](O)C[C@H]2C(=O)N[C@H]([C@@H](C)O)C(=O)N[C@@H]([C@@H](C)O)C(=O)N2CC[C@H](O)[C@H]2C(=O)NC(C(O)CC(N)=O)C(=O)NCC(=O)N[C@H]([C@@H](C)O)C(=O)N[C@@H](CCCN(CCCN)C(=O)[C@@H](N)CCCN)C(=O)O1 (stereo partly drawn) [Aerothricin 132] ([d(aThr)][dA]YV[Hyp][d(aThr)]T[Pro(3S-OH)][X1]G[d(aThr)][X2]; linker N-C via X3) | 0.43 mg/kg | 5.2 mg/kg | 0.28 µg/mL | 0.38 µg/mL | 2.9 µg/mL | >100 µg/mL | acute toxicity [3]: no acute toxicity
CCCCCCCCCCCCC[C@@H]1CC(=O)N[C@H]([C@@H](C)O)C(=O)N[C@H](C)C(=O)N[C@@H](Cc2ccc(O)cc2)C(=O)N[C@@H](C(C)C)C(=O)N2C[C@H](O)C[C@H]2C(=O)N[C@H]([C@@H](C)O)C(=O)N[C@@H]([C@@H](C)O)C(=O)N2CC[C@H](O)[C@H]2C(=O)NC(C(O)CC(N)=O)C(=O)NCC(=O)N[C@H]([C@@H](C)O)C(=O)N[C@@H](CCCN(CCCN)C(=O)[C@H](CCCN)N(CCN)CCN)C(=O)O1 (stereo partly drawn) [Aerothricin 134] ([d(aThr)][dA]YV[Hyp][d(aThr)]T[Pro(3S-OH)][X1]G[d(aThr)][X4](Orn(Nα,Nα-(2-aminoethyl)2)); linker N-C via X3) |  | 5.8 mg/kg | 0.37 µg/mL | 0.37 µg/mL | 0.58 µg/mL | >100 µg/mL | 
CCCCCCCCCCCCC[C@@H]1CC(=O)N[C@H]([C@@H](C)O)C(=O)N[C@H](C)C(=O)N[C@@H](Cc2ccc(O)c(O)c2)C(=O)N[C@@H](C(C)C)C(=O)N2C[C@H](O)C[C@H]2C(=O)N[C@H]([C@@H](C)O)C(=O)N[C@@H]([C@@H](C)O)C(=O)N2CC[C@H](O)[C@H]2C(=O)NC(C(O)CC(N)=O)C(=O)NCC(=O)N[C@H]([C@@H](C)O)C(=O)N[C@@H](CCCN)C(=O)O1 (stereo partly drawn) [Aerothricin 2] ([d(aThr)][dA][Dopa]V[Hyp][d(aThr)]T[Pro(3S-OH)][X1]G[d(aThr)][Orn]; linker N-C via X3) |  |  |  |  |  |  | Solubility (Solubility): Soluble: water, methanol, dimethylsulfoxide
CCCCCCCCCCCCC(C)[C@@H]1CC(=O)N[C@H]([C@@H](C)O)C(=O)N[C@H](C)C(=O)N[C@@H](Cc2ccc(O)cc2)C(=O)N[C@@H](C(C)C)C(=O)N2C[C@H](O)C[C@H]2C(=O)N[C@H]([C@@H](C)O)C(=O)N[C@@H]([C@@H](C)O)C(=O)N2CC[C@H](O)[C@H]2C(=O)NC(C(O)CC(N)=O)C(=O)NCC(=O)N[C@H]([C@@H](C)O)C(=O)N[C@@H](CCCN)C(=O)O1 (stereo partly drawn) [Aerothricin 1] ([d(aThr)][dA]YV[Hyp][d(aThr)]T[Pro(3S-OH)][X1]G[d(aThr)][Orn]; linker N-C via X7) |  |  |  |  |  |  | Solubility (Solubility): Soluble: water, methanol, dimethylsulfoxide
CCCCCCCCCCCCC[C@@H]1CC(=O)N[C@H]([C@@H](C)O)C(=O)N[C@H](C)C(=O)N[C@@H](Cc2ccc(O)cc2)C(=O)N[C@@H](C(C)C)C(=O)N2C[C@H](O)C[C@H]2C(=O)N[C@H]([C@@H](C)O)C(=O)N[C@@H]([C@@H](C)O)C(=O)N2CC[C@H](O)[C@H]2C(=O)NC(C(O)CC(N)=O)C(=O)NCC(=O)N[C@H]([C@@H](C)O)C(=O)N[C@@H](CCCN(CCCN)C(=O)[C@@H](CCCN)N(CCN)CCN)C(=O)O1 (stereo partly drawn) [Aerothricin 135] ([d(aThr)][dA]YV[Hyp][d(aThr)]T[Pro(3S-OH)][X1]G[d(aThr)][X4](NαBis(2-aminoethyl)dOrn); linker N-C via X3) | 0.35 mg/kg |  | 0.41 µg/mL | 0.35 µg/mL | 0.37 µg/mL | >100 µg/mL | 

Reference: patent publication US6849709B2, “Aerothricin derivatives” (Basilea Pharmaceutica AG, priority 2000, dated 2005)
